From US8420100B2, “Tumor suppressor activating polypeptides and uses thereof” (Department of Biotechnology, priority 2006, dated 2013)

Columns and labels:
Assay type in all cases: cell-based
[1] = system: p53-driven p21 promoter in HEK 293 (p53+/+) cells; test: p21 luciferase reporter assay in HEK 293 (p53+/+) cells; conditions: 10 μM peptide, 12 h
Method: (§1) TAT-SMAR1 WT peptide (P44) modulates p53 function: To examine whether P44 peptide could alone activate p53^−, luciferase reporter assays were performed following treatment of cells with the chimeric TAT-SMAR1 derived peptides. HEK 293 (p53^+/+) cells were transfected with p21 expression plasmid having luciferase reporter gene and K562 (p53^−/−) cells were co-transfected with p21 luciferase reporter and p53 constructs. […] (FIG. 2A, bar 3) and about 1.5 fold activation in p53^−/− cell line (FIG. 2B, bar 4).
(§2) FIG. 2. P44 peptide activates the p53-driven p21 gene expression in reporter assays. p21 promoter activity was checked in both HEK 293 (p53^+/+) (A) and K562 (P53^−/−) cells (B). Cells were transfected with either pG13 […] reporter plasmid, a p53-driven p21 promoter, in HEK 293 cells or cotransfected with wild-type (wt) p53 in K562 cells. After 24 h post-transfection, cells were treated for 12 h with 10 μM concentration of various TAT-SMAR1 chimeric peptides. Y axis represents the fold luciferase activity (mean±SD of three independent experiments).
(§3) Luciferase reporter assay: HEK 293 (p53^+/+) and K562 (p53^−/−) cells were grown in DMEM supplemented with 10% FBS in the presence of 5% CO2 at 37° C., a total number of 1×10^6, cells were plated on a 6-well plate. After 24 h, cells were transiently transfected using lipofectamine-2000 with either 1 μg of p21 expression plasmid having luciferase reporter gene or 5 μg p21 luciferase along with wt p53 construct in K562 cell line. Two micrograms of pRL-CMV (Renilla luciferase reporter plasmid) was included in all transfections to normalize the transfection efficiency. Thirty six hours post-transfection, cells were treated with 10 μM of either P44 peptide or its various mutants. The cells were harvested 12 h post-treatment, washed with PBS and lysed in 1× Passive lysis buffer (Promega). After three freeze-thaw cycles, cells were spun at 10,000 rpm at 4° C. for 20 min. The supernatants were collected and protein concentrations were estimated spectrophotometrically using Bradford reagent as (BioRad, CA). According to the manufacturer's instructions, luciferase activity was assessed using the dual luciferase assay reporter kit (Promega). The luciferase activity was measured by using Fluoroskan Ascent Luminometer (Labsystems). For all the luciferase assays, the data shown are the mean+SD of three independent experiments.

[2] = system: p53-driven p21 promoter in K562 (p53-/-) cells; test: p21 luciferase reporter assay in K562 (p53-/-) cells; conditions: 10 μM peptide; for activation of p53 (p21 promoter driven luciferase activity): K562 (p53-/-) co-transfected with p21 luciferase reporter and p53 constructs, 12 h
Method: as §1, §2, §3

[3] = system: cdc2 (tyrosine 15 phosphorylation, pcdc-2); test: Western blotting for pcdc-2 in peptide-treated HEK 293 cells; conditions: for pcdc-2 level: HEK 293, 10 μM peptide, 12 h (FIG. 4A); for pcdc-2 level compared to untreated cells: HEK 293, peptide-treated lysates (FIG. 3C, 3D)
Method: P44 peptide controls the activity of cell cycle regulatory proteins: The minimal dose of P44 peptide that was functionally effective in activating p53 was evaluated by incubating HEK 293 cells with varying concentrations of P44 peptide (1-100 μM) (FIG. 3A) and after 12 h of incubation, protein lysates were prepared and processed for immunoblotting with total p53 (DO-1) and p53 ser-15 phospho-specific antibodies. […] However, there was a 4.5-fold increase in the expression of phosphorylated p53 (pSerine-15 p53) in P44 peptide-treated cells (FIG. 3A, lanes 2-6). To exclude the possibility that p53 activation is an effect of the protein transduction domain of HIV-1 TAT protein, similar set of experiment was performed using TAT-PTD peptide alone (consisting of only the 11-mer TAT-sequence). […] This observation reconfirmed that the RS domain (288-350 aa) of SMAR1 could exclusively activate p53 by mediating its phosphorylation specifically at serine-15 residue. Serine-15 phosphorylation of p53 is associated with its increased transcription efficiency, decreased affinity for MDM2, and its increased nuclear retention. One of the target genes activated by p53 is p21, an inhibitor of a subset of the cyclin-dependent kinases including cdc-2 (Sherr, C. J., and Roberts, J. M. (1999) Genes Dev. 13, 1501-1512). To evaluate the significance of peptide-mediated p53 activation, P44 peptide-treated lysates were further checked for tyrosine 15 phosphorylation of cdc2. […] HEK 293 cells were treated with SM peptide and checked for p53 as well as pcdc-2 levels.
Serine 347 residue of SMAR1: critical for mediating the effects of full-length SMAR1: Once it was established that the serine motif (SSSSYS) plays a pivotal role in SMAR1-mediated p53 activation, it got necessary to identify the serine residue within this motif that might be necessary in mediating these effects. To identify the critical serine residue within P44 peptide, various point-mutant peptides were custom synthesized, that varied with respect to the position of serine residue that was mutated (Table 1). To evaluate the functionality of mutant chimeric TAT-SMAR1 peptides [PS347A, PS348A, PS349A, PS350A and RS mutant (SM)] in comparison to the TAT-SMAR1 WT peptide (P44), HEK 293 cells were treated with 10 μM concentration of either of the peptides and protein lysates were prepared after 12 h incubation period. The lysates were then processed for immunoblotting with pSer-15 p53 and pcdc-2 antibodies. […] However, this was not the case with other mutated peptides. When the alanine was replaced back to serine at the 347 residue (FIG. 4A, lanes 3-5), the functionality of the peptide was restored as observed with increase in pcdc-2 levels. […] However, in case of SM (where serine residues from 347-350 were replaced by alanines) treated cells (FIG. 4A, lane 7), there was no difference in the pSer-15 p53 as well as pcdc-2 levels compared to either untreated or PS347A treated cells (FIG. 4A, lanes 1 and 2, respectively).
FIG. 3. P44 peptide activates p53-mediated cell cycle pathway. A, HEK 293 cells were seeded at a density of 5×10^5 and after 24 h, was incubated with increasing concentrations of the TAT-SMAR1 WT (P44) peptide. Protein lysates were prepared and then immunoblotted with antibodies to total p53, phospho serine-15. B, The same set of experiment was repeated with TAT PTD peptide representing the PTD carrier sequence alone and immunoblotted with phospho serine-15, in comparison of P44 treated cells. C, The status of phospho cdc-2 was further analyzed in P44 peptide treated cells. Total […] was used as an internal control. D, The same set of experiments were again repeated using TAT-SMAR1 RS mutant (SM) peptide and whole cell lysates were probed for phospho p53 serine-15 and pcdc-2 antibodies. […] was used as a loading control.
FIG. 4. Serine 347 residue of SMAR1 mediates p53 activation and stabilization. […]

Sequence	activation of p53 (p21 promoter driven luciferase activity) [1]	activation of p53 (p21 promoter driven luciferase activity) [2]	pcdc-2 level [3]	pcdc-2 level compared to untreated cells [3]	p21 promoter luciferase activity with peptide alone ([2]; K562 (p53-/-) cells without p53 construct)
YGRKKRRQRRRTAWRRKQRGQSLAVKSFSRRTPSASSYSASETM [PS348A, point mutant of P44, serine 348 replaced by alanine]	No significant alteration	No significant alteration	increase	–	–
YGRKKRRQRRRTAWRRKQRGQSLAVKSFSRRTPASSSYSASETM [PS347A, point mutant of P44, serine 347 replaced by alanine]	complete loss	complete loss	decreased	–	–
YGRKKRRQRRRTAWRRKQRGQSLAVKSFSRRTPSSSAYSASETM [PS350A, point mutant of P44, serine 350 replaced by alanine]	No significant alteration	No significant alteration	increase	–	–
YGRKKRRQRRRTAWRRKQRGQSLAVKSFSRRTPAAAAYSASETM [SM, P44 mutant where serine residues from 347-350 were replaced by alanines]	complete loss	complete loss	no difference	no increase	–
YGRKKRRQRRRTAWRRKQRGQSLAVKSFSRRTPSSASYSASETM [PS349A, point mutant of P44, serine 349 replaced by alanine]	No significant alteration	No significant alteration	increase	–	–
YGRKKRRQRRRTAWRRKQRGQSLAVKSFSRRTPSSSSYSASETM [P44, 33 mer SMAR1 peptide (residues 324-357) conjugated with 11-mer TAT-PTD]	2 fold	about 1.5 fold	increase	upregulation	no activity
